For test [1], the target named is T1, Adenosine receptor A1 (Homo sapiens, UniProt P30542).
T1 sequence (P30542 whole entry): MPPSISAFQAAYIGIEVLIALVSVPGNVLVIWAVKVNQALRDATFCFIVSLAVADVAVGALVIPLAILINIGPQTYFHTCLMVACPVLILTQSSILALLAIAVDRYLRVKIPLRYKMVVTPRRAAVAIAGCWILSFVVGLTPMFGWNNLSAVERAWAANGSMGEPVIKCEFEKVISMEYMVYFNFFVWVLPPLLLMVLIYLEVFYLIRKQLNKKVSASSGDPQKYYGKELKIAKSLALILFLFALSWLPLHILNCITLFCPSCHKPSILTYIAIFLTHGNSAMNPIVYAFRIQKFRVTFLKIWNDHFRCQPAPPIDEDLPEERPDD
Description: Displacement of [3H]CCPA from human adenosine A1 receptor expressed in CHO cells. Type of test: cell-based. On the technique in general: Loss of bound radioactivity is the signal in a displacement assay; it reports binding, not function.

Test [2] has as its target Adenosine receptor A2a (Homo sapiens, UniProt P29274). Description: Displacement of [3H]NECA from human adenosine A2A receptor expressed in CHO cells. It counts as cell-based.
In test [3] the target is T2, Adenosine receptor A3 (Homo sapiens, UniProt P0DMS8).
T2 sequence (P0DMS8 whole entry): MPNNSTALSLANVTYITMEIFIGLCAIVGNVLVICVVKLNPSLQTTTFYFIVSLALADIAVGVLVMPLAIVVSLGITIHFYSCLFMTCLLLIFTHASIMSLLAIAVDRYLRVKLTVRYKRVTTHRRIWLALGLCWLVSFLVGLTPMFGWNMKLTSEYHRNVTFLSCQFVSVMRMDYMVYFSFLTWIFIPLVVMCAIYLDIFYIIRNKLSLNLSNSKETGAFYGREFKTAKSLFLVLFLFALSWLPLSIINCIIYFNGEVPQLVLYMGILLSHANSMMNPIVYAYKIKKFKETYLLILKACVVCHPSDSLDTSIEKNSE
Briefly: Displacement of [3H]HEMADO from human adenosine A3 receptor expressed in CHO cells. It counts as cell-based.

In test [4] the target is Adenosine receptors; A1 & A3 (Homo sapiens) (UniProt P30542+P0DMS8). Description: Selectivity ratio of Ki for human adenosine A1 receptor to Ki for human adenosine A3 receptor.
For test [5], the species on record is Homo sapiens. Description: Selectivity ratio of Ki for human adenosine A2A receptor to Ki for human adenosine A3 receptor.

Adenosine receptor A2a, sequence (P29274 whole entry): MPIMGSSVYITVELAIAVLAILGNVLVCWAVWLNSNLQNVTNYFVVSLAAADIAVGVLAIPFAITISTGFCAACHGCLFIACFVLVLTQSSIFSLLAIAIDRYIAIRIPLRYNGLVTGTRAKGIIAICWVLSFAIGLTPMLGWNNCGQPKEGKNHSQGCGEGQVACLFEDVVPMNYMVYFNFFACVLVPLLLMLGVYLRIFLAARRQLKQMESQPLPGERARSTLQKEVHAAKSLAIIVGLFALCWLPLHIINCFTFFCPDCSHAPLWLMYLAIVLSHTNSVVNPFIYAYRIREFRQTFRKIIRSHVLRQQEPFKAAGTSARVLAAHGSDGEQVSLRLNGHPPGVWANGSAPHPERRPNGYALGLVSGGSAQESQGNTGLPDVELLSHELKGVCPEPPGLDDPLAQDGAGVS

Usually Ki stands for the dissociation constant of the complex between target and ligand, obtained from inhibition or displacement. A lower Ki goes with higher affinity. In the case of `Cc1ccc(Nc2nc(N(C)C)c(C(=O)Nc3sc4c(c3C#N)CCCC4)s2)cc1`, the values for the inhibitory constant (Ki) in test [1], in test [2] and in test [3] were more than 100 µM, more than 10 µM and 34 µM, respectively. The Selectivity ratio in test [4] was more than 2.9; in test [5] it was more than 0.29.

Consider `Cc1ccc(Nc2nc(-c3ccc(C)cc3)c(C(=O)Nc3sc4c(c3C#N)CCCC4)s2)cc1`, for which the inhibition constant Ki in test [1], in test [2] and in test [3] was more than 10 µM throughout.

For `CCOC(=O)c1c(NC(=O)c2sc(Nc3ccc(C)cc3)nc2C)sc(C(=O)OC)c1C`, the inhibition constant Ki in test [1], in test [2] and in test [3] was more than 30 µM throughout. Further, the Selectivity ratio in test [5] amounted to 0.33.

As to `CCOC(=O)c1c(NC(=O)c2sc(NC(=O)OC)nc2N(C)C)sc2c1CCCC2`, the inhibitory constant (Ki) was more than 100 µM in test [1], more than 100 µM in test [2] and more than 30 µM in test [3]. Also, the Selectivity ratio in test [4] and in test [5] was more than 3.3 throughout.

In the case of `CCOC(=O)c1c(NC(=O)c2sc(Nc3ccccc3)nc2N(C)C)sc2c1CCCC2`, the Ki in test [1] was determined as 40.8 µM; in test [2], 6.45 µM; in test [3], 4.12 µM. Further, the Selectivity ratio in test [4] is 9.9; in test [5], 1.6.

With `CCOC(=O)c1c(NC(=O)c2sc(Nc3ccc(C)cc3)nc2-c2ccc(C)cc2)sc2c1CCCC2`, the Ki in test [1] was more than 30 µM; in test [2], more than 30 µM; in test [3] it was 2.16 µM. In addition, the Selectivity ratio in test [4] and in test [5] was more than 14 in each case.

For `CCOC(=O)c1c(NC(=O)c2sc(Nc3ccc(OC)cc3)nc2N(C)C)sc(C(=O)OC)c1C`, the Ki came to 14 µM in test [1], 9.66 µM in test [2] and 2.73 µM in test [3]. The Selectivity ratio was 5.1 in test [4] and 3.5 in test [5].

As to `CCOC(=O)c1c(NC(=O)c2sc(Nc3ccccc3)nc2-c2ccc(C)cc2)sc2c1CCCC2`, the inhibition constant Ki in test [1] came to 7.75 µM; in test [2] it was 28.4 µM; in test [3] it was 4.09 µM. In addition, the Selectivity ratio worked out at 1.9 in test [4] and 6.9 in test [5].

Turning to `CN(C)c1nc(Nc2ccccc2)sc1C(=O)Nc1sc2c(c1C#N)CCCC2`, the Ki in test [1] was more than 30 µM; in test [2] it was more than 30 µM; in test [3], 35.6 µM. Moreover, the Selectivity ratio in test [4] and in test [5] was more than 0.84 each time.

For `Cc1ccc(Nc2nc(N(C)C)c(C(=O)Nc3sc4c(c3C(N)=O)CCCC4)s2)cc1`, the Ki worked out at 32.4 µM in test [1], 22.3 µM in test [2] and 7.13 µM in test [3]. Moreover, the values for the Selectivity ratio in test [4] and in test [5] were 4.5 and 3.1, respectively.

Consider `Cc1ccc(Nc2nc(C)c(C(=O)Nc3sc4c(c3C#N)CCCC4)s2)cc1`, for which the inhibition constant (Ki) was more than 30 µM in test [1], 5.67 µM in test [2] and 3.87 µM in test [3]. For the same compound, the Selectivity ratio is more than 7.8 in test [4] and 1.5 in test [5].

In the case of `CCOC(=O)c1c(NC(=O)c2sc(Nc3ccc(OC)cc3)nc2-c2ccc(C)cc2)sc2c1CCCC2`, the inhibitory constant (Ki) in test [1] was more than 10 µM; in test [2] it was more than 10 µM; in test [3] it was 0.52 µM. Besides, the Selectivity ratio in test [4] and in test [5] was more than 19 each time.

Turning to `COc1ccc(Nc2nc(-c3ccc(C)cc3)c(C(=O)Nc3sc4c(c3C#N)CCCC4)s2)cc1`, the Ki in test [1] was more than 30 µM; in test [2], more than 30 µM; in test [3] it was 9.56 µM. Moreover, the Selectivity ratio in test [4] and in test [5] was more than 3.1 each time.

In the case of `CCOC(=O)c1c(NC(=O)c2sc(Nc3ccc(C)cc3)nc2N(C)C)sc2c1CCCC2`, the inhibition constant Ki in test [1] was determined as 23.5 µM; in test [2] it was 18 µM; in test [3], 4.71 µM. For the same compound, the Selectivity ratio in test [4] came to 5; in test [5], 3.8.

On to `CCOC(=O)c1c(NC(=O)c2sc(Nc3ccc(C)cc3)nc2C)sc2c1CCCC2`, for which the Ki in test [1] is more than 30 µM; in test [2], more than 30 µM; in test [3], 8.22 µM. The Selectivity ratio in test [4] and in test [5] was more than 3.7 each time.

Take `Cc1ccc(Nc2nc(-c3ccc(C)cc3)c(C(=O)Nc3sc4c(c3C(N)=O)CCCC4)s2)cc1`: the inhibition constant Ki is more than 30 µM in test [1], more than 10 µM in test [2] and 0.33 µM in test [3]. Further, the Selectivity ratio is more than 90 in test [4] and more than 30 in test [5].

Take `CCOC(=O)c1c(NC(=O)c2sc(Nc3ccc(C)cc3)nc2N(C)C)sc(C(=O)OC)c1C`: the inhibition constant (Ki) was found to be 19 µM in test [1], 26.6 µM in test [2] and 3.91 µM in test [3]. Also, the Selectivity ratio in test [4] worked out at 4.9; in test [5], 6.8.

For the compound `Cc1ccc(-c2nc(Nc3ccccc3)sc2C(=O)Nc2sc3c(c2C(N)=O)CCCC3)cc1`, the Ki in test [1] was found to be 2.38 µM; in test [2] it was 3.44 µM; in test [3], 0.334 µM. Moreover, the Selectivity ratio in test [4] came to 7.1; in test [5] it was 10.

Source of the values: ChEMBL document CHEMBL3400099, “Novel thiazole-thiophene conjugates as adenosine receptor antagonists: synthesis, biological evaluation and docking studies” (Bioorg Med Chem Lett, 2015).
